# Measurements from the Kinase Knowledgebase extract (Sharma et al. 2016).
# Legend:
# ROCK2 = ROCK2 (UniProt O75116); assay: Inhibition of ROCK2 Kinase Activity; conditions: for inhibition: concentration not given here
# EGFR = EGFR (UniProt P00533); conditions: concentration not given here
# MAPK14 = MAPK14 (UniProt Q16539); assay: Inhibition of MAPK14 Kinase Activity; conditions: concentration not given here
# CDK2 = CDK2 (UniProt P24941); assay: Enzyme Assay; conditions: for inhibition: concentration not given here
# Sequence of ROCK2 (O75116 whole entry, looked up): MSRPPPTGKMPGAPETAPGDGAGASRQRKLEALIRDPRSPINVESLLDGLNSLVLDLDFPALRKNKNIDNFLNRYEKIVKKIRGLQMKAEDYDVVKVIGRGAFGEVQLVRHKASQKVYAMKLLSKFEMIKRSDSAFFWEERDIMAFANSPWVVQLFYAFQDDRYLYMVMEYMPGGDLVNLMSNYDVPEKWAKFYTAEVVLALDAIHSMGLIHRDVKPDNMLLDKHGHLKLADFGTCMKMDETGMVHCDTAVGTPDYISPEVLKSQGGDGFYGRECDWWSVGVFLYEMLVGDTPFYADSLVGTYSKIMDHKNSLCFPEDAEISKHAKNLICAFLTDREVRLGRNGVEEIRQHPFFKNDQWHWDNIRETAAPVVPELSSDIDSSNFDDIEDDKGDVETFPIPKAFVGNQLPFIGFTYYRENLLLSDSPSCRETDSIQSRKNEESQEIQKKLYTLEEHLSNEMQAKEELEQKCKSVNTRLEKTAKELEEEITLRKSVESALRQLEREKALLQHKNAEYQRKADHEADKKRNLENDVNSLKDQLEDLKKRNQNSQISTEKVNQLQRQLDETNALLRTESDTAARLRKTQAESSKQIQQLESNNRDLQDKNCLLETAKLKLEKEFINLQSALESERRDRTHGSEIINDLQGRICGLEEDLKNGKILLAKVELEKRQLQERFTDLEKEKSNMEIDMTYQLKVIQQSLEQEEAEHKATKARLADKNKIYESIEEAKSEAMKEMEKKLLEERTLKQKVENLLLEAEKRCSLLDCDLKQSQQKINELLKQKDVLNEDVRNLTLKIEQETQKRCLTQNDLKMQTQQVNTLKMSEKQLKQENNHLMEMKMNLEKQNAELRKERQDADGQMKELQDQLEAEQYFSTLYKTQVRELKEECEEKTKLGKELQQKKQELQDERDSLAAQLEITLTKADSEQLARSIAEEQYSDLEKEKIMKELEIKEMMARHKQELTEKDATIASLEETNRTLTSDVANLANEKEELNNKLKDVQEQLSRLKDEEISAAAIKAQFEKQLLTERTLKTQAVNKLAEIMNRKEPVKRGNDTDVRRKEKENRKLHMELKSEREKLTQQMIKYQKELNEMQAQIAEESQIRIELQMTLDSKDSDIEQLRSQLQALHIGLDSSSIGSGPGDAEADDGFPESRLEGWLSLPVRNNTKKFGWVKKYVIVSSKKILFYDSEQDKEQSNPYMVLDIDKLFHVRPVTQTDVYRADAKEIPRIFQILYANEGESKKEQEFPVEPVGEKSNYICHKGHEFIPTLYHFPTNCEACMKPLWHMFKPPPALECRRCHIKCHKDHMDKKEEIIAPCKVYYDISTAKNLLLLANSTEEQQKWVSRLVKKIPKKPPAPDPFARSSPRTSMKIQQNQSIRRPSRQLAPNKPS
# Sequence of EGFR (P00533 whole entry, looked up): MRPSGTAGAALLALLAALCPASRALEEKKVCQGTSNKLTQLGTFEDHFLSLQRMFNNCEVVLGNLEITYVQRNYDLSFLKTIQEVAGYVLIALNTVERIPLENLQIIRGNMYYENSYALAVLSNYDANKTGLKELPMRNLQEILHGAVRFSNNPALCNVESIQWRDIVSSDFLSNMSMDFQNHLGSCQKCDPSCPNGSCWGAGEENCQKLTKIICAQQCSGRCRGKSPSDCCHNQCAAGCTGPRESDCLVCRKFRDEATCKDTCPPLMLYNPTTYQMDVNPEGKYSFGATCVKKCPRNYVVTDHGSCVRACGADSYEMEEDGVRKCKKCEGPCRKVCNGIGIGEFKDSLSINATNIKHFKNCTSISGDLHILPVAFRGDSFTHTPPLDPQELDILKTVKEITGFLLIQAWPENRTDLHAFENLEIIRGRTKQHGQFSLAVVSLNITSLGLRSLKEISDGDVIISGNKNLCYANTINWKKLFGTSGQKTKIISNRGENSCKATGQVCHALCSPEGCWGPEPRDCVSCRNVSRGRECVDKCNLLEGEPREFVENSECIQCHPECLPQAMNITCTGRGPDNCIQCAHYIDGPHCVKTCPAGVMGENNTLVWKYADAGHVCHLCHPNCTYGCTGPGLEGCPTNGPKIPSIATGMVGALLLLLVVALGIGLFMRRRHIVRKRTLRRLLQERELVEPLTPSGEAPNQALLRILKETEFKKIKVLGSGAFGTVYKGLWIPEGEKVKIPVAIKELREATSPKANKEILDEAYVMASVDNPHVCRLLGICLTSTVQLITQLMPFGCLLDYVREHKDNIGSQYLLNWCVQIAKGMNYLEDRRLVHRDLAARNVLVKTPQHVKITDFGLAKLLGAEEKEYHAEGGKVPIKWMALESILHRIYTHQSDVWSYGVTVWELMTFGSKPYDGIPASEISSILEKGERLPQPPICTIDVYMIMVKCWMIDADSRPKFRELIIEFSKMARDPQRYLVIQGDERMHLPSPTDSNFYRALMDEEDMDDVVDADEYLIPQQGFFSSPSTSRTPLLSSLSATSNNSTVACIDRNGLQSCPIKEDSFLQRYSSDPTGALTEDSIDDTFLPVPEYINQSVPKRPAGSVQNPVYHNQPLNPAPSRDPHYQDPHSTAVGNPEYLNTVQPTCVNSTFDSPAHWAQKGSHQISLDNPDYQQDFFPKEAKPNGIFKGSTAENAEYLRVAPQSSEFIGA
# Sequence of MAPK14 (Q16539 whole entry, looked up): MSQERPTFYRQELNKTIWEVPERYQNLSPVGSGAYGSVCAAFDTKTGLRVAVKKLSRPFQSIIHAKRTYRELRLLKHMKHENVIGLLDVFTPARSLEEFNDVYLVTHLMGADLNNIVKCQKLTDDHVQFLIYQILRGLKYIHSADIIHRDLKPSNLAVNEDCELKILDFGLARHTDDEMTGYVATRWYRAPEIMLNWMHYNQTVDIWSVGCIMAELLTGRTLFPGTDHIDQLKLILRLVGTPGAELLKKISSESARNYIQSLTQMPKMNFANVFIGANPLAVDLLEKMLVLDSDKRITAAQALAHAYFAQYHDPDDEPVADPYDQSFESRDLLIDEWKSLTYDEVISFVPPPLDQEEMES
Structure (SMILES),inhibition (ROCK2),inhibition (EGFR),other results
Oc1cccc(CNc2cncc(-c3cccc(O)c3)c2)c1,50 to 90%,50 to 90%,–
CS(=O)(=O)Nc1cccc(-c2cncc(NCc3cccc(O)c3)c2)c1,–,50 to 90%,–
OCc1cccc(-c2cncc(NCc3cccc(O)c3)c2)c1,–,50 to 90%,–
Nc1cccc(-c2cncc(NCc3cccc(O)c3)c2)c1,–,50 to 90%,–
COc1ccc(-c2cncc(NCc3cccc(O)c3)c2)cc1OC,–,50 to 90%,–
COc1cccc(-c2cncc(NCc3cccc(O)c3)c2)c1F,–,50 to 90%,–
Oc1cccc(CCNc2cncc(-c3cccc(O)c3)c2)c1,–,> 90%,–
CN(C)CCNC(=O)c1cccc(-c2cncc(NCc3cccc(O)c3)c2)c1,–,50 to 90%,–
Oc1cccc(CNc2cncc(-c3ccc(N4CCOCC4)cc3)c2)c1,–,50 to 90%,–
CC(=O)Nc1cccc(-c2cncc(NCc3cccc(O)c3)c2)c1,–,50 to 90%,inhibition (MAPK14): 50 to 90%
Oc1cccc(CNc2cncc(-c3cccc(O)c3F)c2)c1,–,50 to 90%,–
O=C(NCCO)c1cccc(-c2cncc(NCc3cccc(O)c3)c2)c1,–,50 to 90%,–
CN(Cc1cccc(O)c1)c1cncc(-c2cccc(O)c2)c1,50 to 90%,–,–
O=C(Nc1cncc(-c2cccc(O)c2)c1)c1cccc(O)c1,–,> 90%,–
CC(=O)Nc1cccc(-c2cncc(Nc3ccccc3F)c2)c1,–,50 to 90%,–
CC(=O)Nc1cccc(-c2cncc(Nc3ccc(F)cc3)c2)c1,–,50 to 90%,–
COc1cccc(-c2cncc(NCc3cccc(O)c3)c2)c1,50 to 90%,50 to 90%,IC50 (CDK2): < 1000 nM
Oc1ccc(-c2cncc(NCc3ccc4c(c3)OCO4)c2)cc1,50 to 90%,–,–
COC(=O)c1cccc(-c2cncc(NCc3cccc(O)c3)c2)c1,50 to 90%,–,inhibition (CDK2): > 90%
Oc1cccc(CNc2cncc(-c3cccnc3)c2)c1,–,50 to 90%,–
OCc1ccc(-c2cncc(NCc3cccc(O)c3)c2)cc1,50 to 90%,50 to 90%,–
COC(=O)c1cccc(CNc2cncc(-c3cccc(O)c3)c2)c1,–,50 to 90%,–
Oc1cccc(CNc2cncc(-c3ccccc3)c2)c1,–,50 to 90%,–
Cc1ccc(CNc2cncc(-c3cccc(O)c3)c2)cc1O,50 to 90%,50 to 90%,–
Oc1cccc(CNc2cncc(Cc3cccc(O)c3)c2)c1,50 to 90%,–,inhibition (CDK2): > 90%
Oc1ccc(-c2cncc(NCc3cccc(O)c3)c2)cc1,–,50 to 90%,IC50 (ROCK2): < 1000 nM; inhibition (CDK2): > 90%
NC(=O)c1cccc(-c2cncc(NCc3cccc(O)c3)c2)c1,–,50 to 90%,IC50 (ROCK2): < 1000 nM
O=C(O)c1cccc(-c2cncc(NCc3cccc(O)c3)c2)c1,–,50 to 90%,–
Oc1ccc(-c2cncc(NCc3ccc(F)c(F)c3)c2)cc1,50 to 90%,–,–
